Assay results as given in patent US20230175066A1, “ANALYSIS/DIAGNOSIS METHOD UTILIZING RNA MODIFICATION” (OSAKA UNIVERSITY, priority 2018, published 2023).

Columns and labels:
[1] = test system: DLD-1 cell strain, 5-FU resistant strain, FTD resistant strain; set-up: methylation on microRNA, FTD resistant strain / miRNA methylation, FTD resistant strain: unit not given here; conditions: for Rate of change, FTD resistance (fold) / Rate of change, FTD (fold): FTD resistant versus parental strain; for methylation on microRNA, FTD parental strain / methylation on microRNA, FTD resistant strain: RIP sequencing; for methylation on microRNA, FTD parental strain: DLD-1, FTD parental strain; for methylation on microRNA, FTD resistant strain: DLD-1 FTD resistant strain; for miRNA methylation, FTD parental strain / miRNA methylation, FTD resistant strain: miRNAs that decrease post-surgery
Experimental: For an original DLD-1 cell strain and each resistant strain (5-FU resistant strain and FTD resistant strain), RNA methylation analysis in accordance with the protocol for RIP sequencing described above and microarray or mRNA expression analysis similar to the qRT-PCR of Example 2-2 was performed. RIP sequencing and RNA expression information based primary component analysis (two dimensional projection using a component resulting in maximum dispersion) was performed. The results are represented as mean ± standard deviation (SD) based on three independent experiments. The statistical significance of the results was evaluated by pairwise T-TEST using R version 3.4.3 (2017-11-30) on Microsoft Excel® software (Microsoft Campus, Redmond, WA, USA). P value < 0.05 was considered statistically significant. As a result, wild-type strain and each resistant strain was clearly distinguished. […] Total RNA was purified in accordance with the protocol for Trizol (Invitrogen) from the original DLD-1 cell strain and each resistant strain (5-FU resistant strain and FTD resistant strain), and then RNA methylation analysis was performed according to the protocol for RIP sequencing described above. Ribo-Zero rRNA Removal Kit (Illumina) was used for the removal of rNRAs.

[2] = test system: trifluridine resistant strain of cancer cell strain DLD-1; test: IC50 for trifluridine in the trifluridine resistant strain prepared from DLD-1; format: cell-based; conditions: Homo sapiens; DLD-1 after maintenance culture for 6 months or more in the presence of trifluridine (about 10 mg/mL)
Experimental: The cancer cell strain DLD-1 obtained from a cell bank such as ATCC or RIKEN was subjected to maintenance culture for 6 months or more in the presence of trifluridine (FTD) (Aldrich-Sigma) (about 10 mg/mL). The maintenance culture was subcultured about twice a week to maintain 60 to 80% confluence at 37° C. in a serum 10% added DMEM medium on a plastic dish.

Row | Molecule | Rate of change, 5-FU resistance (fold) [1] | methylation on microRNA, 5-FU parental strain [1] | methylation on microRNA, 5-FU resistant strain [1] | Rate of change, FTD resistance (fold) [1] | methylation on microRNA, FTD parental strain [1] | methylation on microRNA, FTD resistant strain [1] | IC50 [2] [µM] | Rate of change 5-FU (fold) [1] | miRNA methylation, 5-FU parental strain [1] | miRNA methylation, 5-FU resistant strain [1] | miRNA methylation, FTD parental strain [1] | miRNA methylation, FTD resistant strain [1] | Rate of change, FTD (fold) [1] [fold]
1 | miR-378f (ACUGGACUUGGAGCCAGAAG; chemistry not fully specified; listed as Homo sapiens) | 0.67 fold | 3 | 1 | (0.50) fold | 2 | 1 |  |  |  |  |  |  | 
2 | miR-378e (ACUGGACUUGGAGUCAGGA; chemistry not fully specified; listed as Homo sapiens) | 1.64 fold | 11 | 2 | 0.86 fold | 3 | 6 |  |  |  |  |  |  | 
3 | miR-378i (ACUGGACUAGGAGUCAGAAGG; chemistry not fully specified; listed as Homo sapiens) | 0.50 fold | 18 | 1 | 0.33 fold | 6 | 3 |  |  |  |  |  |  | 
4 | O=c1[nH]c(=O)n([C@H]2C[C@H](O)[C@@H](CO)O2)cc1C(F)(F)F [trifluridine] |  |  |  |  |  |  | 300 |  |  |  |  |  | 
5 | miR-4467 (UGGCGGCGGUAGUUAUGGGCUU; chemistry not fully specified; listed as Homo sapiens) |  |  |  |  |  |  |  | (1.00) fold | 6 | 6 | 1 | 12 | 8.00
6 | miR-492 (AGGACCUGCGGGACAAGAUUCUU; chemistry not fully specified; listed as Homo sapiens) |  | 0 | 0 |  | 0 | 0 |  |  |  |  |  |  | 
7 | miR-4754 (AUGCGGACCUGGGUUAGCGGAGU; chemistry not fully specified; listed as Homo sapiens) | (1.33) fold | 3 | 4 | 0.00 fold | 4 | 0 |  |  |  |  |  |  | 
8 | miR-3122 (GUUGGGACAAGAGGACGGUCUU; chemistry not fully specified; listed as Homo sapiens) |  | 0 | 2 |  | 0 | 0 |  |  |  |  |  |  | 
9 | miR-4435 (AUGGCCAGAGCUCACACAGAGG; chemistry not fully specified; listed as Homo sapiens) |  |  |  |  |  |  |  | 2.38 fold | 28 | 14 | 46 | 100 | 1.41
10 | miR-3690 (ACCUGGACCCAGCGUAGACAAAG; chemistry not fully specified; listed as Homo sapiens) |  | 0 | 0 | 0.00 fold | 1 | 0 |  |  |  |  |  |  | 
11 | miR-378d (ACUGGACUUGGAGUCAGAAA; chemistry not fully specified; listed as Homo sapiens) | 1.54 fold | 144 | 30 | 0.36 fold | 80 | 63 |  |  |  |  |  |  | 
12 | miR-3131 (UCGAGGACUGGUGGAAGGGCCUU; chemistry not fully specified; listed as Homo sapiens) | (0.33) fold | 9 | 3 | (10.00) fold | 1 | 10 |  |  |  |  |  |  | 
13 | miR-378h (ACUGGACUUGGUGUCAGAUGG; chemistry not fully specified; listed as Homo sapiens) | 0.00 fold | 1 | 0 |  | 0 | 0 |  |  |  |  |  |  | 
